The molecules below were run against GST-tagged-Wee1 kinase (Homo sapiens, UniProt P30291) (assay: Wee1 time-resolved fluorescence equilibrium binding assay (displacement of Oregon Green-labeled ATP-competitive kinase probe)). Conditions: not given.
Procedure: Wee1 kinase was assayed using a time-resolved fluorescence equilibrium binding assay monitoring displacement of a rapidly reversible Oregon Green-labeled ATP-competitive kinase probe (N-(2-(2-(2-(4-(4-(5-chloro-4-(2-(1-hydroxycyclobutyl)thiazol-5-yl)-1H-pyrrolo[2,3-b]pyridin-2-yl)phenyl)piperazin-1-yl)ethoxy)ethoxy)ethyl)-2′,7′-difluoro-3′,6′-dihydroxy-3-oxo-3H-spiro[isobenzofuran-1,9′-xanthene]-5-carboxamide) by competitive Wee1 inhibitors.

Sequence of GST-tagged-Wee1 kinase (P30291 whole entry): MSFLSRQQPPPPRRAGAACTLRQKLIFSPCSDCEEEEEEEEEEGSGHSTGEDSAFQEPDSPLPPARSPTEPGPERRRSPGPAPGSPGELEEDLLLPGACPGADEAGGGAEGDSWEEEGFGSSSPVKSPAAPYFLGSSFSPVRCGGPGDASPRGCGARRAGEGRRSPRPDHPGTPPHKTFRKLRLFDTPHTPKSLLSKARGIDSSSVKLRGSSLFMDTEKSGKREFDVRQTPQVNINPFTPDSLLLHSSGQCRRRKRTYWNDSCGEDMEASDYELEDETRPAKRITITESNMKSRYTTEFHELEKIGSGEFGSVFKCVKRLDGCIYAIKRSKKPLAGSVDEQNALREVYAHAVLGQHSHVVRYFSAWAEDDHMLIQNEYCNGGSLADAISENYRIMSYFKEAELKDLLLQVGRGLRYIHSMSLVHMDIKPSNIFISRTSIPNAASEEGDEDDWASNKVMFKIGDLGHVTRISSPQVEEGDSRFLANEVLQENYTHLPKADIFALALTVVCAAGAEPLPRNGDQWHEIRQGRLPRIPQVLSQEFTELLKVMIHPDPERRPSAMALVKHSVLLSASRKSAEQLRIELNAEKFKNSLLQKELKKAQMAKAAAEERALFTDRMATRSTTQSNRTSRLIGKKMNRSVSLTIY

Ki [nM]	Molecule
0.26	Cc1cccc(Cl)c1-n1nc(C)c2nc(Nc3ccc4c(c3)CNCC4(C)C)ncc2c1=O [Example 497, 6-(2-chloro-6-methylphenyl)-2-[(4,4-dimethyl-1,2,3,4-tetrahydroisoquinolin-7-yl)amino]-8-methylpyrimido[4,5-d]pyridazin-5(6H)-one]
0.1	CN1CCN(c2ccc(Nc3ncc4c(=O)n(-c5c(Cl)cccc5Cl)nc(-c5cccc(C(C)(C)O)n5)c4n3)cc2)CC1 [Example 160, 6-(2,6-dichlorophenyl)-8-[6-(2-hydroxypropan-2-yl)pyridin-2-yl]-2-{[4-(4-methylpiperazin-1-yl)phenyl]amino}pyrimido[4,5-d]pyridazin-5(6H)-one]
25	CN1CCN(c2ccc(Nc3ncc4c(=O)[nH]nc(-c5ccccc5)c4n3)cc2)CC1 [Example 4, 2-{[4-(4-methylpiperazin-1-yl)phenyl]amino}-8-phenylpyrimido[4,5-d]pyridazin-5(6H)-one]
0.56	CCc1nn(-c2c(Cl)cccc2Cl)c(=O)c2cnc(Nc3ccc4c(c3)CCN(C)C4)nc12 [Example 492, 6-(2,6-dichlorophenyl)-8-ethyl-2-[(2-methyl-1,2,3,4-tetrahydroisoquinolin-6-yl)amino]pyrimido[4,5-d]pyridazin-5(6H)-one]
0.8	O=c1c2cnc(Nc3ccc(N4CCN(C5COC5)CC4)cc3)nc2c(-c2ccncc2)nn1-c1c(Cl)cccc1Cl [Example 321, 6-(2,6-dichlorophenyl)-2-({4-[4-(oxetan-3-yl)piperazin-1-yl]phenyl}amino)-8-(pyridin-4-yl)pyrimido[4,5-d]pyridazin-5(6H)-one]
3	C=CCn1nc(-c2ccco2)c2nc(Nc3ccc(N4CCCN(C(C)C)CC4)c(C)c3)ncc2c1=O [Example 228, 8-(furan-2-yl)-2-({3-methyl-4-[4-(propan-2-yl)-1,4-diazepan-1-yl]phenyl}amino)-6-(prop-2-en-1-yl)pyrimido[4,5-d]pyridazin-5(6H)-one]
0.48	CN1CCN(c2ccc(Nc3ncc4c(=O)n(-c5c(Cl)cccc5Cl)nc(-c5ccc(C(=O)NC6CCC6)cc5)c4n3)cc2)CC1 [Example 292, N-cyclobutyl-4-[6-(2,6-dichlorophenyl)-2-{[4-(4-methylpiperazin-1-yl)phenyl]amino}-5-oxo-5,6-dihydropyrimido[4,5-d]pyridazin-8-yl]benzamide]
0.3	CC1(C)CNCc2cc(Nc3ncc4c(=O)n(-c5c(Cl)cccc5Cl)nc(-c5ccccn5)c4n3)ccc21 [Example 263, 6-(2,6-dichlorophenyl)-2-[(4,4-dimethyl-1,2,3,4-tetrahydroisoquinolin-7-yl)amino]-8-(pyridin-2-yl)pyrimido[4,5-d]pyridazin-5(6H)-one]
73	CN1CCN(c2ccc(Nc3ncc4c(=O)n(-c5ccccc5)nc(Cc5ccccc5)c4n3)cc2)CC1 [Example 19, 8-benzyl-2-{[4-(4-methylpiperazin-1-yl)phenyl]amino}-6-phenylpyrimido[4,5-d]pyridazin-5(6H)-one]
6.7	Cc1nn(-c2ncccc2Cl)c(=O)c2cnc(Nc3ccc4c(c3)CNCC4)nc12 [Example 400, 6-(3-chloropyridin-2-yl)-8-methyl-2-(1,2,3,4-tetrahydroisoquinolin-7-ylamino)pyrimido[4,5-d]pyridazin-5(6H)-one]
9	CN1CCN(c2ccc(Nc3ncc4c(=O)n(-c5ccccc5)nc(-c5ccncc5)c4n3)cc2)CC1 [Example 154, 2-{[4-(4-methylpiperazin-1-yl)phenyl]amino}-6-phenyl-8-(pyridin-4-yl)pyrimido[4,5-d]pyridazin-5(6H)-one]
0.53	Cc1nn(-c2c(F)cccc2Cl)c(=O)c2cnc(Nc3ccc4c(c3)CC(N(C)C)C4)nc12 (stereo not drawn) [Example 366, 6-(2-chloro-6-fluorophenyl)-2-{[2-(dimethylamino)-2,3-dihydro-1H-inden-5-yl]amino}-8-methylpyrimido[4,5-d]pyridazin-5(6H)-one]
2.5	C=CCn1nc(-c2ccccc2)c2nc(Nc3ccc4c(c3)CN(C)CC43CC3)ncc2c1=O [Example 172, 6-allyl-2-[(2′-methyl-2′,3′-dihydro-1′H-spiro[cyclopropane-1,4′-isoquinolin]-7′-yl)amino]-8-phenylpyrimido[4,5-d]pyridazin-5(6H)-one]
< 1	CN1CCN(c2ccc(Nc3ncc4c(=O)n(-c5ccccc5Cl)nc(-c5ccc(-c6ncccn6)cc5)c4n3)cc2)CC1 [Example 61, 6-(2-chlorophenyl)-2-{[4-(4-methylpiperazin-1-yl)phenyl]amino}-8-[4-(pyrimidin-2-yl)phenyl]pyrimido[4,5-d]pyridazin-5(6H)-one]
1	Cc1nn(-c2c(F)cccc2Cl)c(=O)c2cnc(Nc3ccc(N4CCNCC4)cc3)nc12 [Example 396, 6-(2-chloro-6-fluorophenyl)-8-methyl-2-{[4-(piperazin-1-yl)phenyl]amino}pyrimido[4,5-d]pyridazin-5(6H)-one]
0.21	O=c1c2cnc(Nc3ccc4c(c3)CNCC43CC3)nc2c(C(F)F)nn1-c1c(Cl)cccc1Cl [Example 407, 6-(2,6-dichlorophenyl)-8-(difluoromethyl)-2-(2′,3′-dihydro-1′H-spiro[cyclopropane-1,4′-isoquinolin]-7′-ylamino)pyrimido[4,5-d]pyridazin-5(6H)-one]
0.4	O=c1c2cnc(Nc3ccc(N4CCNCC4)cc3)nc2c(-c2cnccn2)nn1-c1c(Cl)cccc1Cl [Example 220, 6-(2,6-dichlorophenyl)-2-{[4-(piperazin-1-yl)phenyl]amino}-8-(pyrazin-2-yl)pyrimido[4,5-d]pyridazin-5(6H)-one]
0.3	CN1CCN(c2ccc(Nc3ncc4c(=O)n(-c5c(Cl)cccc5Cl)nc(-c5ccccc5)c4n3)cc2)CC1 [Example 46, 6-(2,6-dichlorophenyl)-2-{[4-(4-methylpiperazin-1-yl)phenyl]amino}-8-phenylpyrimido[4,5-d]pyridazin-5(6H)-one]
3	O=C1CCCN1c1ccc(Nc2ncc3c(=O)n(-c4ccccc4Cl)nc(-c4cccs4)c3n2)cc1 [Example 121, 6-(2-chlorophenyl)-2-{[4-(2-oxopyrrolidin-1-yl)phenyl]amino}-8-(2-thienyl)pyrimido[4,5-d]pyridazin-5(6H)-one]
0.38	CN1CCN(c2ccc(Nc3ncc4c(=O)n(-c5c(Cl)cccc5Cl)nc(-c5ccc(C(=O)N(C)C)cc5)c4n3)cc2)CC1 [Example 291, 4-[6-(2,6-dichlorophenyl)-2-{[4-(4-methylpiperazin-1-yl)phenyl]amino}-5-oxo-5,6-dihydropyrimido[4,5-d]pyridazin-8-yl]-N,N-dimethylbenzamide]
0.8	CN1CCN(c2ccc(Nc3ncc4c(=O)n(-c5ccccc5C(F)(F)F)nc(-c5ccccc5)c4n3)cc2)CC1 [Example 31, 2-{[4-(4-methylpiperazin-1-yl)phenyl]amino}-8-phenyl-6-[2-(trifluoromethyl)phenyl]pyrimido[4,5-d]pyridazin-5(6H)-one]
1.6	CCc1nn(-c2c(Cl)cccc2Cl)c(=O)c2cnc(Nc3ccc4c(c3)CNC(=O)C4)nc12 [Example 464, 6-(2,6-dichlorophenyl)-8-ethyl-2-[(3-oxo-1,2,3,4-tetrahydroisoquinolin-7-yl)amino]pyrimido[4,5-d]pyridazin-5(6H)-one]
0.72	Cc1nn(-c2c(Cl)cccc2Cl)c(=O)c2cnc(Nc3ccc4c(c3)CN(S(C)(=O)=O)CC4(C)C)nc12 [Example 441, 6-(2,6-dichlorophenyl)-2-{[4,4-dimethyl-2-(methylsulfonyl)-1,2,3,4-tetrahydroisoquinolin-7-yl]amino}-8-methylpyrimido[4,5-d]pyridazin-5(6H)-one]
0.1	CN1Cc2cc(Nc3ncc4c(=O)n(-c5c(Cl)cccc5Cl)nc(-c5ccccn5)c4n3)ccc2C(C)(C)C1 [Example 241, 6-(2,6-dichlorophenyl)-8-(pyridin-2-yl)-2-[(2,4,4-trimethyl-1,2,3,4-tetrahydroisoquinolin-7-yl)amino]pyrimido[4,5-d]pyridazin-5(6H)-one]
0.26	Cc1nn(-c2c(Cl)cccc2Cl)c(=O)c2cnc(Nc3ccc4c(c3)CN(C)C4)nc12 [Example 491, 6-(2,6-dichlorophenyl)-8-methyl-2-[(2-methyl-2,3-dihydro-1H-isoindol-5-yl)amino]pyrimido[4,5-d]pyridazin-5(6H)-one]
0.2	CN1CCN(c2ccc(Nc3ncc4c(=O)n(-c5c(Cl)cccc5Cl)nc(-c5ccnc(C(C)(C)O)c5)c4n3)cc2)CC1 [Example 250, 6-(2,6-dichlorophenyl)-8-[2-(2-hydroxypropan-2-yl)pyridin-4-yl]-2-{[4-(4-methylpiperazin-1-yl)phenyl]amino}pyrimido[4,5-d]pyridazin-5(6H)-one]
0.2	O=C1CCCN1c1ccc(-c2nn(-c3c(Cl)cccc3Cl)c(=O)c3cnc(Nc4ccc5c(c4)CNCC5)nc23)cc1 [Example 247, 6-(2,6-dichlorophenyl)-8-[4-(2-oxopyrrolidin-1-yl)phenyl]-2-(1,2,3,4-tetrahydroisoquinolin-7-ylamino)pyrimido[4,5-d]pyridazin-5(6H)-one]
0.25	CCc1nn(-c2c(Cl)cccc2Cl)c(=O)c2cnc(Nc3ccc4c(c3)CNCC43CC3)nc12 [Example 404, 6-(2,6-dichlorophenyl)-2-(2′,3′-dihydro-1′H-spiro[cyclopropane-1,4′-isoquinolin]-7′-ylamino)-8-ethylpyrimido[4,5-d]pyridazin-5(6H)-one]
1	CN1CCN(c2ccc(Nc3ncc4c(=O)n(-c5c(Cl)cccc5Cl)nc(C5CCCC5)c4n3)cc2)CC1 [Example 74, 8-cyclopentyl-6-(2,6-dichlorophenyl)-2-{[4-(4-methylpiperazin-1-yl)phenyl]amino}pyrimido[4,5-d]pyridazin-5(6H)-one]

Same assay, conditions: read-out: Wee-1 inhibition Ki

Molecule	Ki [nM]
8-(6-chloropyridin-2-yl)-6-(2,6-dichlorophenyl)-2-{[4-(4-methylpiperazin-1-yl)phenyl]amino}pyrimido[4,5-d]pyridazin-5(6H)-one [Example 75]	0.08

Source: patent US8796289B2 (AbbVie Inc., priority 2011, dated 2014)
